Assay results reported in patent US6737383B1, “Herbicidal oxadiazolidines” (priority 1999, dated 2004).

Key:
rape = assay: Test B pre/postemergence rape; format: in vivo, Brassica napus; details: for Rape plant response rating: scale of 0 to 10 where 0 is no effect and 10 is complete control
In short: (§1)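 Herbicidal effect was estimated by eye on a ten-point control scale after plants spent twelve to sixteen days in a greenhouse following soil or foliar treatment. Foliar sprays targeted plants at one to four leaves; all doses were formulated in a non-phytotoxic solvent with surfactant.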

crabgrass = assay: Test B pre/postemergence crabgrass; format: in vivo, Digitaria sanguinalis; details: for Crabgrass plant response rating: scale of 0 to 10 where 0 is no effect and 10 is complete control
In short: as §1

rice = assay: Test B flood test rice; format: in vivo, Oryza sativa
In short: (§2)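 Read-out is a visual response score from 0 (no effect) to 10 (complete control), assigned by comparison with untreated controls. Treatment was applied at the 2-leaf stage, and plants stayed in the greenhouse for twelve to sixteen days before scoring.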

pigweed = assay: Test B pre/postemergence pigweed; format: in vivo, Amaranthus retroflexus; details: for Redroot pigweed plant response rating: scale of 0 to 10 where 0 is no effect and 10 is complete control
In short: as §1

duck salad = assay: Test B flood test duck salad; format: in vivo, Heteranthera limosa
In short: as §2

corn = assay: Test B pre/postemergence corn; format: in vivo, Zea mays; details: for Corn plant response rating: scale of 0 to 10 where 0 is no effect and 10 is complete control
In short: as §1

cocklebur = assay: Test B pre/postemergence cocklebur; format: in vivo, Xanthium strumarium; details: for Cocklebur plant response rating: scale of 0 to 10 where 0 is no effect and 10 is complete control
In short: as §1

purple nutsedge = assay: Test B pre/postemergence purple nutsedge; format: in vivo, Cyperus rotundus; details: for Nutsedge plant response rating: scale of 0 to 10 where 0 is no effect and 10 is complete control
In short: as §1

velvetleaf = assay: Test B pre/postemergence velvetleaf; format: in vivo, Abutilon theophrasti; details: for Velvetleaf plant response rating: scale of 0 to 10 where 0 is no effect and 10 is complete control
In short: as §1

soybean = assay: Test B pre/postemergence soybean; format: in vivo, Glycine max
In short: as §1

smallflower flatsedge = assay: Test B flood test smallflower flatsedge; format: in vivo, Cyperus difformis
In short: as §2

giant foxtail = assay: Test B pre/postemergence giant foxtail; format: in vivo, Setaria faberii; details: for Giant foxtail plant response rating: scale of 0 to 10 where 0 is no effect and 10 is complete control
In short: as §1

morningglory = assay: Test B pre/postemergence morningglory; format: in vivo, Ipomoea hederacea; details: for Morningglory plant response rating: scale of 0 to 10 where 0 is no effect and 10 is complete control
In short: as §1

blackgrass = assay: Test B pre/postemergence blackgrass; format: in vivo, Alopecurus myosuroides
In short: as §1

sugar beet = assay: Test B pre/postemergence sugar beet; format: in vivo, Beta vulgaris; details: for Sugarbeets plant response rating: scale of 0 to 10 where 0 is no effect and 10 is complete control
In short: as §1

wheat = assay: Test B pre/postemergence wheat; format: in vivo, Triticum aestivum; details: for Wheat plant response rating: scale of 0 to 10 where 0 is no effect and 10 is complete control
In short: as §1

[1] = Postemergence, Rate 125 g/ha, scale 0 to 10, 0 is no effect, 10 is complete control
[2] = Preemergence, Rate 62 g/ha, scale 0 to 10 (0 no effect, 10 complete control)
[3] = Rate 500 g/ha, Postemergence, scale 0 to 10, 0 no effect, 10 complete control
[4] = Postemergence (flood test), Rate 125 g/ha, scale 0 to 10, 0 is no effect, 10 is complete control
[5] = Rate 62 g/ha, Postemergence (flood test species), scale of 0 to 10 where 0 is no effect and 10 is complete control
[6] = Rate 500 g/ha, listed under Postemergence (flood test species), scale 0 to 10, 0 no effect, 10 complete control
[7] = Rate 62 g/ha, Postemergence, scale of 0 to 10 where 0 is no effect and 10 is complete control

CC(C)N(C(=O)n1oc(=O)n(C2CCCO2)c1=O)c1ccc(F)cc1 (centres unmarked) [Compound 345]
0: Plant response rating, Rape (rape; [1]) | Plant response rating, Rape (rape; [2]) | Rape plant response rating (0 to 10 scale) (rape; Preemergence, Rate 125 g/ha) | Rape plant response rating (rape; Preemergence, Rate 250 g/ha) | Rape plant response rating (rape; Preemergence, Rate 500 g/ha) | Rape plant response rating (rape; Rate 62 g/ha, Postemergence) | Plant response rating, Rape (rape; [3]) | Plant response rating, Crabgrass (crabgrass; [1]) | Plant response rating, Crabgrass (crabgrass; [2]) | Crabgrass plant response rating (0 to 10 scale) (crabgrass; Preemergence, Rate 125 g/ha) | Crabgrass plant response rating (crabgrass; Preemergence, Rate 250 g/ha) | Crabgrass plant response rating (crabgrass; Preemergence, Rate 500 g/ha) | Crabgrass plant response rating (crabgrass; Rate 62 g/ha, Postemergence) | Plant response rating, Crabgrass (crabgrass; [3]) | Plant response rating, Rice (rice; [4]) | Rice plant response rating (rice; [5]) | Plant response rating, Rice (rice; [6]) | Plant response rating, Redroot pigweed (pigweed; [1]) | Plant response rating, Redroot pigweed (pigweed; [2]) | Redroot pigweed plant response rating (0 to 10 scale) (pigweed; Preemergence, Rate 125 g/ha) | Redroot pigweed plant response rating (pigweed; Preemergence, Rate 250 g/ha) | Redroot pigweed plant response rating (pigweed; Preemergence, Rate 500 g/ha) | Redroot pigweed plant response rating (pigweed; Rate 62 g/ha, Postemergence) | Plant response rating, Redroot pigweed (pigweed; [3]) | Plant response rating, Ducksalad (duck salad; [4]) | Ducksalad plant response rating (duck salad; [5]) | Plant response rating, Ducksalad (duck salad; [6]) | Plant response rating, Corn (corn; [1]) | Plant response rating, Corn (corn; [2]) | Corn plant response rating (0 to 10 scale) (corn; Preemergence, Rate 125 g/ha) | Corn plant response rating (corn; Preemergence, Rate 250 g/ha) | Corn plant response rating (corn; Preemergence, Rate 500 g/ha) | Corn plant response rating (corn; Rate 62 g/ha, Postemergence) | Plant response rating, Corn (corn; [3]) | Plant response rating, Cocklebur (cocklebur; [1]) | Plant response rating, Cocklebur (cocklebur; [2]) | Cocklebur plant response rating (0 to 10 scale) (cocklebur; Preemergence, Rate 125 g/ha) | Cocklebur plant response rating (cocklebur; Preemergence, Rate 250 g/ha) | Cocklebur plant response rating (cocklebur; Preemergence, Rate 500 g/ha) | Cocklebur plant response rating (cocklebur; Rate 62 g/ha, Postemergence) | Plant response rating, Cocklebur (cocklebur; [3]) | Plant response rating, Nutsedge (purple nutsedge; [1]) | Plant response rating, Nutsedge (purple nutsedge; [2]) | Nutsedge plant response rating (0 to 10 scale) (purple nutsedge; Preemergence, Rate 125 g/ha) | Nutsedge plant response rating (purple nutsedge; Preemergence, Rate 250 g/ha) | Nutsedge plant response rating (purple nutsedge; Preemergence, Rate 500 g/ha) | Nutsedge plant response rating (purple nutsedge; Rate 62 g/ha, Postemergence) | Plant response rating, Nutsedge (purple nutsedge; [3]) | Plant response rating, Velvetleaf (velvetleaf; [1]) | Plant response rating, Velvetleaf (velvetleaf; [2]) | Velvetleaf plant response rating (0 to 10 scale) (velvetleaf; Preemergence, Rate 125 g/ha) | Velvetleaf plant response rating (velvetleaf; Preemergence, Rate 250 g/ha) | Velvetleaf plant response rating (velvetleaf; Preemergence, Rate 500 g/ha) | Velvetleaf plant response rating (velvetleaf; Rate 62 g/ha, Postemergence) | Plant response rating, Velvetleaf (velvetleaf; [3]) | Plant response rating, Soybean (soybean; [1]) | Soybean plant response rating (0 to 10 scale) (soybean; Preemergence, Rate 125 g/ha) | Soybean plant response rating (soybean; [7]) | Plant response rating, Soybean (soybean; [3]) | Plant response rating, S. Flatsedge (smallflower flatsedge; [4]) | S. Flatsedge plant response rating (smallflower flatsedge; [5]) | Plant response rating, S. Flatsedge (smallflower flatsedge; [6]) | Plant response rating, Giant foxtail (giant foxtail; [1]) | Plant response rating, Giant foxtail (giant foxtail; [2]) | Giant foxtail plant response rating (0 to 10 scale) (giant foxtail; Preemergence, Rate 125 g/ha) | Giant foxtail plant response rating (giant foxtail; Preemergence, Rate 250 g/ha) | Giant foxtail plant response rating (giant foxtail; Preemergence, Rate 500 g/ha) | Giant foxtail plant response rating (giant foxtail; Rate 62 g/ha, Postemergence) | Plant response rating, Giant foxtail (giant foxtail; [3]) | Plant response rating, Morningglory (morningglory; [1]) | Plant response rating, Morningglory (morningglory; [2]) | Morningglory plant response rating (0 to 10 scale) (morningglory; Preemergence, Rate 125 g/ha) | Morningglory plant response rating (morningglory; Preemergence, Rate 250 g/ha) | Morningglory plant response rating (morningglory; Preemergence, Rate 500 g/ha) | Morningglory plant response rating (morningglory; Rate 62 g/ha, Postemergence) | Plant response rating, Morningglory (morningglory; [3]) | Plant response rating, Blackgrass (blackgrass; [1]) | Plant response rating, Blackgrass (blackgrass; [2]) | Blackgrass plant response rating (0 to 10 scale) (blackgrass; Preemergence, Rate 125 g/ha) | Blackgrass plant response rating (blackgrass; Preemergence, Rate 250 g/ha, scale of 0 to 10 where 0 is no effect and 10 is complete control) | Blackgrass plant response rating (blackgrass; Preemergence, Rate 500 g/ha, scale of 0 to 10 where 0 is no effect and 10 is complete control) | Blackgrass plant response rating (blackgrass; [7]) | Plant response rating, Blackgrass (blackgrass; Rate 250 g/ha, Postemergence, scale of 0 to 10 where 0 is no effect and 10 is complete control) | Plant response rating, Blackgrass (blackgrass; [3]) | Plant response rating, Sugarbeets (sugar beet; [1]) | Plant response rating, Sugarbeets (sugar beet; [2]) | Sugarbeets plant response rating (0 to 10 scale) (sugar beet; Preemergence, Rate 125 g/ha) | Sugarbeets plant response rating (sugar beet; Preemergence, Rate 250 g/ha) | Sugarbeets plant response rating (sugar beet; Preemergence, Rate 500 g/ha) | Sugarbeets plant response rating (sugar beet; Rate 62 g/ha, Postemergence) | Plant response rating, Sugarbeets (sugar beet; [3]) | Plant response rating, Wheat (wheat; [1]) | Plant response rating, Wheat (wheat; [2]) | Wheat plant response rating (0 to 10 scale) (wheat; Preemergence, Rate 125 g/ha) | Wheat plant response rating (wheat; Preemergence, Rate 250 g/ha) | Wheat plant response rating (wheat; Preemergence, Rate 500 g/ha) | Wheat plant response rating (wheat; Rate 62 g/ha, Postemergence) | Plant response rating, Wheat (wheat; [3])
